How the values were obtained:
[1] = molecular target: T1, Oxysterols receptor LXR-alpha (Homo sapiens, UniProt Q13133)
T1 sequence (Q13133 whole entry): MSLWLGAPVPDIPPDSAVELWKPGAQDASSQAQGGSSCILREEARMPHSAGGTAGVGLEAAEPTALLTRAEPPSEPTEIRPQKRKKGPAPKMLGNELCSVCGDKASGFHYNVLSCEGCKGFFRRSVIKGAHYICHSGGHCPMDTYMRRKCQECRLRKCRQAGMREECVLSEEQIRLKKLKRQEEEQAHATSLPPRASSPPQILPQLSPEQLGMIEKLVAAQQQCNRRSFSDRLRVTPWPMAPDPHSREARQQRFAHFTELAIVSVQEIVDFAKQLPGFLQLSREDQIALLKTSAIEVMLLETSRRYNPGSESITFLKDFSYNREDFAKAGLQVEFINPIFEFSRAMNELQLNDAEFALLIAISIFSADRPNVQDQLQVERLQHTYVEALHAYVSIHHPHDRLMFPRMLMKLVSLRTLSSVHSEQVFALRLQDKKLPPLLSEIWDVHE

[2] = molecular target: T2, Oxysterols receptor LXR-beta (Homo sapiens, UniProt P55055)
T2 sequence (P55055 whole entry): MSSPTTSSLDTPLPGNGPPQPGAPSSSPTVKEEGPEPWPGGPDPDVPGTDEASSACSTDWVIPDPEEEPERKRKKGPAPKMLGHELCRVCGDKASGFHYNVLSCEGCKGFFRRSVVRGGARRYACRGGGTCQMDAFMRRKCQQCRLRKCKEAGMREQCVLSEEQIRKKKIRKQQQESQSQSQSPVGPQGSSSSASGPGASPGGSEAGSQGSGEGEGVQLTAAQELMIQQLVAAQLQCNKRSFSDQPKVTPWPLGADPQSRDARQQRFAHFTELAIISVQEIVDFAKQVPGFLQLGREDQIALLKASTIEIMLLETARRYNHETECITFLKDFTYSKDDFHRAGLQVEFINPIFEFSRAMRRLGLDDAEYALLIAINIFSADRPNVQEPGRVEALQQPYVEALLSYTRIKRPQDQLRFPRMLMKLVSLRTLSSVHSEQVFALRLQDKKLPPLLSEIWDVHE

Compound | Ki [1] [nM] | Ki [2] [nM]
CC(C)CC[C@H](O)[C@@H](C)[C@H]1CC[C@H]2[C@@H]3CC=C4C[C@@H](O)CC[C@]4(C)[C@H]3CC[C@]12C [(1S,2R,5S,10S,11S,14R,15S)-14-[(2S,3S)-3-hydroxy-6-methylheptan-2-yl]-2,15-dimethyltetracyclo[8.7.0.0^{2,7}.0^{11,15}]heptadec-7-en-5-ol] | 250 | 490
CC(C)(O)C1OC2CCC3(C)C(O)(CCC4Cc5c([nH]c6ccccc56)C43C)C2=CC1=O (stereo not drawn) [CAS_57186-25-1] | – | 1100
